Results taken from PMC3671888 (Journal of medicinal chemistry, 2012).

Target: T1, recombinant human sGC (soluble guanylyl cyclase), α1 and β1 subunits (Homo sapiens, UniProt Q02108+Q02153)
T1 sequence (Q02108 1-690): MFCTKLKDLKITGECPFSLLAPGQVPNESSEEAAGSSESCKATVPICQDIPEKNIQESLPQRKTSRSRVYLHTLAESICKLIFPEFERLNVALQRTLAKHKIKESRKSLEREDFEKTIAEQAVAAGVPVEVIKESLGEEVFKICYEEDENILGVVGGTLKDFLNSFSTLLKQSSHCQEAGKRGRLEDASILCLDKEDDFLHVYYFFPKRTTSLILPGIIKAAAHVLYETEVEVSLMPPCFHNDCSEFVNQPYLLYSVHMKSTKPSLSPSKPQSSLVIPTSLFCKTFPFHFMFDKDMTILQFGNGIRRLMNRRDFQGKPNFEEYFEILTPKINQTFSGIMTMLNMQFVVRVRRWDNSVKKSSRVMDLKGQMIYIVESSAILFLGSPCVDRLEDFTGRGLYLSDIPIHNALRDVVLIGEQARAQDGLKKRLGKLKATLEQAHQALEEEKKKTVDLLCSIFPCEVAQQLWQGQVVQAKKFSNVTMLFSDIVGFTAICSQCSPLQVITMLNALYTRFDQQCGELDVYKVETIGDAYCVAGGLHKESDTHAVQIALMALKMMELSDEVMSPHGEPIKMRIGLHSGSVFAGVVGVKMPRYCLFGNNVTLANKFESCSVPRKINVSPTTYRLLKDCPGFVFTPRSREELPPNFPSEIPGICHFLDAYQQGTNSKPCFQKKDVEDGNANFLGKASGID
T1 sequence (Q02153 1-619): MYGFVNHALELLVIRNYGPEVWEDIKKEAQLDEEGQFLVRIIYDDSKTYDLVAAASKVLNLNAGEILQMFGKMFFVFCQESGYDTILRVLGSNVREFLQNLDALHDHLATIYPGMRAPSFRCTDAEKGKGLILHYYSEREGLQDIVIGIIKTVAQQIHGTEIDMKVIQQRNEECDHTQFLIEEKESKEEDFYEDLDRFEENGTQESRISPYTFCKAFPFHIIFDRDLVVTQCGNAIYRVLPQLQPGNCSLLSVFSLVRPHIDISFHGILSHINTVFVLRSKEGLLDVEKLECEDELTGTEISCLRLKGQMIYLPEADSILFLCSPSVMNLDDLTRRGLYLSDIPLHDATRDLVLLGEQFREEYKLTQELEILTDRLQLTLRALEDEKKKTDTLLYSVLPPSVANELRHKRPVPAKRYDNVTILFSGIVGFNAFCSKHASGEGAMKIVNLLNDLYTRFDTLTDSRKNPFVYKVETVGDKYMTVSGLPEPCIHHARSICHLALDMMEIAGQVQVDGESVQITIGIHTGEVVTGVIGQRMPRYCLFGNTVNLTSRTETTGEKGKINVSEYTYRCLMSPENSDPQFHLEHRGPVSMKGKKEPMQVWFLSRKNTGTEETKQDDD
Assay: [alpha-32P]GTP to […]cGMP conversion assay
Assay type: biochemical
Conditions: read-out: EC50 [μM] ^b; activation; preincubation with compound at 25 °C

Compound `C#N.C#N.C/C1=C2/NC([C@H](CC(N)=O)[C@@]2(C)CCC(=O)NCC(C)O)[C@]2(C)N=C(/C(C)=C3N=C(/C=C4N=C1[C@@H](CCC(N)=O)C\4(C)C)[C@@H](CCC(N)=O)[C@]\3(C)CC(N)=O)[C@@H](CCC(N)=O)[C@]2(C)CC(N)=O.[Co]` (stereo partly shown) [compound 1, dicyanocobinamide] has an EC50 of 34.2 µM.
